Usually GI50 stands for the concentration at which growth is held to half of that of the control. In general, TGI refers to the concentration at which net growth stops.

The source of these data is PubChem BioAssay (NCI).

Among the test systems are SR leukemia; CCRF-CEM leukemia; UACC-62 melanoma; MDA-MB-435; HL-60(TB) leukemia; COLO 205 colon; K-562 leukemia; NCI-H226 lung; CAKI-1 renal; RXF 393 renal.
Common to all, as to assay: DTP human tumour cell line panel, 48 h

“And” between values parts separate entries of the source, which are not always exact repeats. Identical values can stand only once.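 Dose response: 5 concentrations. Exposure: 48 h. Format: 96-well plates. Endpoint: linear interpolation; highest concentration if not reached. At the GI50, growth is halved. TGI: total growth inhibition.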

Take `N#Cc1c(NN)n(C2OC(CO)C(O)C2O)c2ncnc(N)c12` (stereo unspecified): the concentration for 50% growth inhibition (GI50) was 0.0272 µM in the assay with SR leukemia; 0.13 µM with CCRF-CEM leukemia; 0.126 µM with UACC-62 melanoma; 0.104 µM in the assay on MDA-MB-435; 0.022 µM in the assay with HL-60(TB) leukemia; 0.0181 µM in the assay with K-562 leukemia. Moreover, the GI50 with NCI-H226 lung is 0.496 µM; with CAKI-1 renal, 0.0619 µM; in the assay on RXF 393 renal, 0.0398 µM. For the same compound, the TGI was determined as 0.0815 µM with SR leukemia; 0.605 µM with CCRF-CEM leukemia; 0.308 µM with UACC-62 melanoma; 0.916 µM in the assay on MDA-MB-435; 0.109 µM with HL-60(TB) leukemia; 0.0424 µM with COLO 205 colon. The TGI with K-562 leukemia is 0.176 µM; in the assay on NCI-H226 lung it was 2.91 µM; with CAKI-1 renal, 0.639 µM; in the assay with RXF 393 renal, 0.415 µM.
Consider `CCN(CC)CCC(CNc1ccnc2cc(Cl)ccc12)c1ccc(OC)cc1` (stereo unspecified), for which the GI50 in the assay with SR leukemia is 2.31 µM and 2.04 µM; in the assay with CCRF-CEM leukemia it was 13.1 µM and 2.77 µM; in the assay with UACC-62 melanoma it was 2.31 µM and 1.86 µM; in the assay with MDA-MB-435, 1.91 µM and 1.65 µM; in the assay with HL-60(TB) leukemia, 6.59 µM and 3.76 µM; with COLO 205 colon it was 1.9 µM and 1.34 µM. The GI50 is 1.79 µM and 1.19 µM in the assay on K-562 leukemia; 4.14 µM and 4.92 µM in the assay with NCI-H226 lung; 5.85 µM and 2.54 µM with CAKI-1 renal; 3.5 µM and 2.26 µM in the assay on RXF 393 renal. In addition, the TGI with SR leukemia was 8.35 µM and 7.34 µM; with CCRF-CEM leukemia, 55.9 µM and 28.7 µM; with UACC-62 melanoma, 5.02 µM and 4.01 µM; in the assay on MDA-MB-435 it was 4.12 µM and 3.71 µM; in the assay with HL-60(TB) leukemia, 25.3 µM and 20.4 µM; in the assay on COLO 205 colon it was 4.3 µM and 2.95 µM. Besides, the TGI in the assay with K-562 leukemia was 5.76 µM and 4.14 µM; in the assay on NCI-H226 lung it was 17.3 µM and 28.4 µM; in the assay with CAKI-1 renal, 23.2 µM and 15.9 µM; in the assay on RXF 393 renal, 15.6 µM and 5.16 µM.
On to `C=COCCCOc1ccccc1`, for which the TGI with SR leukemia, in the assay with CCRF-CEM leukemia, in the assay with UACC-62 melanoma, in the assay with MDA-MB-435, in the assay on HL-60(TB) leukemia and with COLO 205 colon was above 100 µM throughout. In addition, the TGI in the assay with K-562 leukemia, in the assay with NCI-H226 lung, in the assay with CAKI-1 renal and in the assay on RXF 393 renal was above 100 µM throughout. Also, the GI50 in the assay on UACC-62 melanoma and in the assay on MDA-MB-435 was above 100 µM each time.
For `O=C(Nc1ccc(Cl)cc1F)c1ccccc1O`, the GI50 was 5.73 µM in the assay with SR leukemia; 3.47 µM in the assay on CCRF-CEM leukemia; 2.08 µM in the assay with UACC-62 melanoma; 3.37 µM with MDA-MB-435; 2.53 µM with HL-60(TB) leukemia; 5.7 µM in the assay on COLO 205 colon. The GI50 with K-562 leukemia was 3.5 µM; in the assay with NCI-H226 lung, 2.23 µM; in the assay on CAKI-1 renal, 2.37 µM; in the assay with RXF 393 renal, 3.23 µM. Further, the TGI in the assay with SR leukemia is above 100 µM; in the assay with CCRF-CEM leukemia it was above 100 µM; in the assay on UACC-62 melanoma, 9.24 µM; in the assay on MDA-MB-435, 30.7 µM; with HL-60(TB) leukemia it was 6.16 µM; in the assay on COLO 205 colon, 41.2 µM. For the same compound, the TGI in the assay with K-562 leukemia is above 100 µM; with NCI-H226 lung, 8.85 µM; in the assay on CAKI-1 renal, 13.6 µM; in the assay with RXF 393 renal, 11.2 µM.
Consider `COc1cc(C2CC(c3cccc(Br)c3)=NN2C(C)=O)cc(OC)c1OC` (stereo unspecified), for which the GI50 was 0.0402 µM with SR leukemia; 0.264 µM in the assay with CCRF-CEM leukemia; 0.309 µM in the assay with UACC-62 melanoma; 0.0514 µM in the assay with MDA-MB-435; 0.191 µM with HL-60(TB) leukemia; 0.256 µM with COLO 205 colon. In addition, the GI50 is 0.114 µM in the assay on K-562 leukemia, 11.5 µM with NCI-H226 lung, 0.282 µM in the assay with CAKI-1 renal and 0.266 µM in the assay on RXF 393 renal. Also, the TGI in the assay on SR leukemia is above 100 µM; in the assay on CCRF-CEM leukemia, 4.5 µM; in the assay with UACC-62 melanoma, 29.3 µM; in the assay on MDA-MB-435, 0.297 µM; in the assay with HL-60(TB) leukemia, 0.553 µM; with COLO 205 colon it was 0.802 µM. Moreover, the TGI in the assay on K-562 leukemia is 11.7 µM; in the assay on NCI-H226 lung it was above 58.5 µM; in the assay on CAKI-1 renal, 54.1 µM; in the assay with RXF 393 renal, 0.976 µM.
Take `COc1ccc2c(c1)CCCC(Br)C2=O` (stereo unspecified): the TGI worked out at 24.6 µM in the assay on SR leukemia; 1.48 µM with CCRF-CEM leukemia; 8.88 µM in the assay on UACC-62 melanoma; 5.99 µM in the assay with MDA-MB-435; 16.9 µM in the assay with HL-60(TB) leukemia; 10.9 µM in the assay on COLO 205 colon. Also, the TGI in the assay with K-562 leukemia turned out to be 18.7 µM; in the assay with NCI-H226 lung, 5.92 µM; in the assay on CAKI-1 renal it was 9.45 µM; in the assay with RXF 393 renal, 17.7 µM.
